Results reported in EP4732839A1, “USE OF COMPOUND IN TREATMENT OF LIVER DISEASES” (priority 2023, dated 2025).
Values belong to the compound of their own block, whether it stands above or below them.

How the values were obtained:
[1] = system: ISG15, ISG56, Mx1, and Oaslb; assay: Liver safety: qPCR of interferon-related genes in liver tissue; type: in vivo, C57BL/6J wild-type female mice; conditions: dose of 3 mpk (pharmacodynamic dose)
Protocol: (§1) C57BL/6J wild-type female mice (6 weeks old) were randomly grouped. After administration at different doses, whole blood and liver tissues of the mice were separately collected at 1 h, 2 h, and 4 h for detection of a plurality of parameters to evaluate the effect of the drugs on the liver.
(§2) Liver tissues and blood were collected at 1 h, 2 h, and 4 h after single dosing.
(§3) The supernatant was collected and stored (-20 °C); • (3) IFN-α, IP-10, IL-6, and TNF-α were detected using an ELISA kit. • (C) Remaining liver tissue-HE staining and pathological evaluation. • (D) 1/2 blood (whole blood)-liver function parameter detection: AST (aspartate aminotransferase), ALT (alanine aminotransferase/glutamate pyruvate transaminase), ALP (alkaline phosphatase), ALB (albumin), and GGT (γ-glutamyl transferase). • (E) 1/2 blood-serum preparation-reserve for ELISA.

[2] = system: Hep3B-luc; assay: Hep3B-luc liver orthotopic xenograft mouse model; conditions: Hep3B-luc liver orthotopic tumor model, 3 mg/kg
[3] = molecular target: hERG potassium channel (Homo sapiens, UniProt Q12809); assay: hERG whole-cell patch-clamp; type: cell-based
Sequence of hERG potassium channel (Q12809 whole entry): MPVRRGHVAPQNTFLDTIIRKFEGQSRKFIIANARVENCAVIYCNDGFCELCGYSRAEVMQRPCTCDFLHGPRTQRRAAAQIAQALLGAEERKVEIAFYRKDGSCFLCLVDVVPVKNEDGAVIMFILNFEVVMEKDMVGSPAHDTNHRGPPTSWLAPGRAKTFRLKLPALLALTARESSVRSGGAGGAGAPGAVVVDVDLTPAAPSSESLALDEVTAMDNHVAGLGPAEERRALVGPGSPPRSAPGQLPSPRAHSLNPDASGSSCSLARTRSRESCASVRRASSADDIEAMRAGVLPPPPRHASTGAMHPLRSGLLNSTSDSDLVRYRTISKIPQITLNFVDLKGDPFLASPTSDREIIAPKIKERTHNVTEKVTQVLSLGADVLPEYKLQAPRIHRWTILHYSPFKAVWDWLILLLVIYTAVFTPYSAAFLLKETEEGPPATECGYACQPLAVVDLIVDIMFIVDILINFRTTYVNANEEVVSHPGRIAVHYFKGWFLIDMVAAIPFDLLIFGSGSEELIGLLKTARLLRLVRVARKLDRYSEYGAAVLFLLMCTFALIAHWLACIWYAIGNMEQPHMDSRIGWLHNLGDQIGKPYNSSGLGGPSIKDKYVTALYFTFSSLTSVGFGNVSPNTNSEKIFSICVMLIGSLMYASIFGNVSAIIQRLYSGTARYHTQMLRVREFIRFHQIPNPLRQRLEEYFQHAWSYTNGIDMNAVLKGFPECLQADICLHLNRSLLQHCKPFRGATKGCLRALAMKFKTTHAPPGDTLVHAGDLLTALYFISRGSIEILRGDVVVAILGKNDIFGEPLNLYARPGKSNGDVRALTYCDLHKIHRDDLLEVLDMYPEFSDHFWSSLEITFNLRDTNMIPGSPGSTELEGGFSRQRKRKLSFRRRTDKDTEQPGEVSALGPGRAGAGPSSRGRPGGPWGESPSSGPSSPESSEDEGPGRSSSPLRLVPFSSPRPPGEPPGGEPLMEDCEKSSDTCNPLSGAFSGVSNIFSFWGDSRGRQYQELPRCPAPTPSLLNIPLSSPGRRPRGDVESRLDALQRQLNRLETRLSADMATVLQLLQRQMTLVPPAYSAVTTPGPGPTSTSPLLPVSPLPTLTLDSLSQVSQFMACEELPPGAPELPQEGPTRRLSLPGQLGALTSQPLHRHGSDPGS
From the text: The rapidly activated potassium channel encoded by human ether-a-go-go-related gene (hERG) is an important ion channel involved in the formation of cardiac action potential phase 3 repolarization. Drug-induced blockade of hERG channels can lead to delayed cardiac repolarization, manifested as QT interval prolongation on the electrocardiogram, known as long QT syndrome. Drug-induced delayed ventricular repolarization may, under certain circumstances, trigger fatal arrhythmias-torsade de pointes-type ventricular tachycardia. In this study, the whole-cell patch-clamp technique (the standard method for hERG safety assessment) was employed to evaluate the inhibitory effects of the small-molecule compounds on the hERG potassium channel and to assess the risk of ventricular repolarization toxicity.

[4] = in vitro; conditions: human, microsomes, pH 7.4
Protocol: The metabolic stability of the compounds in in vitro liver microsomes was evaluated. The procedures and steps were as follows: At 37 °C, 1 µM of the compounds was incubated in 1 mg/mL liver microsomes. The reaction system was a 0.1 M potassium phosphate buffer (pH 7.4) containing 3 mmol/L MgCl2 and 1 mmol/L NADPH. At the beginning of the reaction, the small molecules and the liver microsomes were pre-incubated at 37 °C for 10 min, and subsequently a cofactor NADPH was added to initiate the metabolic reaction. The reaction was quenched at 0 min, 5 min, 10 min, 20 min, 30 min, and 60 min using three volumes of ice-cold methanol containing an internal standard (200 nM labetalol). After incubation at room temperature for 10 min, the samples were centrifuged at 4000 rpm at 4 °C for 20 min, and the supernatants were collected, diluted with chromatography-grade purified water in a 1:1 ratio, and then subjected to quantitative analysis. […] After a 6-minute chromatographic separation on a C18 column (50 × 2.1 mm; 2.6 µm) under a gradient mobile phase of 0.1% formic acid in water, the peaks corresponding to specified ionic signals were detected. […] The detailed operation process was as follows: • 1) The compound working solution was added to all 96-well reaction plates (T0, T5, T10, T20, T30, and T60) at 10 µL/well, except the blank wells. • 2) The microsomal solution was added to all the reaction wells (T0, T5, T10, T20, T30, T60, and blank wells) at 80 µL/well. • 3) The plates were pre-incubated at 37 °C for 10 min. • 4) After pre-incubation, NADPH was added to each reaction plate at 10 µL/well to initiate the reaction. • 5) At the set end time point, a 4 °C methanol solution (containing an internal standard: 200 nM labetalol) was added to each reaction plate at 300 µL/well to quench the reaction. • 6) Each plate was sealed and shaken for 10 min. • 7) The mixture was shaken well and centrifuged at 4000 rpm at 4 °C for 20 min. • 8) 300 µL of the supernatant was collected, and HPLC-grade water was added at 300 µL/well. The mixture was well mixed and then subjected to LC-MS analysis.
The metabolic half-life (T1/2) and the metabolic clearance rate (CLint(mic)) (µL/min/mg) were calculated using a first-order kinetic equation.

[5] = in vivo
Protocol: C57BL/6 mice, 8 weeks old, female/male, 27, supplier: SPF (Beijing) Biotechnology Co., Ltd.
The body weight of the animals was measured and recorded daily.
All groups were subjected to clinical observations before administration and 1 to 2 h after administration, and additional observations were performed if necessary. Deaths and mortality were checked twice daily. The observations should include, but are not limited to, the following: fur condition, activity, mental status, vomiting, diarrhea, and abnormal secretions around the eyes. All animals should be observed on the day of necropsy, and any abnormal findings should be recorded.
The rectal temperature of all animals was measured and recorded at 0 h before administration and at 2 h, 4 h, 8 h and 24 h after administration.
The experiment was terminated on day 7 after administration. A gross necropsy was performed to examine abdominal and thoracic organs for lesions, and the spleen and liver were collected for weighing.

[6] = system: H22-luc; conditions: H22-luc orthotopic model, 3 mpk, IG
Protocol: The cells were placed in an incubator at 37 °C with 5% CO2 and passaged every 1 to 2 days depending on the cell density.
The cell concentration (H22-luc, 2.0E8/mL) was adjusted, and the cells were mixed well with Matrigel at a ratio of 1:1. The mixture was placed on ice for subsequent injection experiments, and was mixed thoroughly by shaking with Vortex before use.
• (1) The mice were weighed before surgery and anesthetized by intraperitoneal injection of avertin at 0.15 mL/10 g body weight. […] The needle was inserted into the liver at a 30-degree angle relative to the liver surface. After the needle was inserted, the needle was made parallel to the tabletop and advanced in parallel for about 3 mm. 10 µL of H22-luc cell suspension was slowly injected, and a rapid whitening (white plaque) or turbid translucent vacuolation over most of the liver lobe in the injection area was observed. • (5) After injection, a cotton swab was used to apply slight pressure at the needle insertion site while the needle was slowly withdrawn. The cotton swab was removed until no bleeding was observed. • (6) The liver lobe was gently pushed back into the abdominal cavity, and the muscle layer and skin were sutured.
The experimental data were analyzed using Graphpad Prism 8. The experimental data were expressed as mean ± SD.

[7] = Liver tissue distribution after single intragastric administration; conditions: for Mean drug concentration (liver) / Mean drug concentration (plasma) / AUC(0-t) at 24 h: 10 mg/kg single intragastric, ICR mice; for AUC(0-t) at 24 h: in vivo, area under curve at 24 h post-dose
Protocol: The specific regimen was as follows: Before administration, the state of the formulation for administration was inspected, and the homogeneity of the formulation was ensured by vortexing, stirring, or shaking. The theoretical dose for each mouse was calculated according to the following formula. The actual dose for each ICR mouse and the collection time for plasma and tissue samples were required to be recorded in detail in corresponding tables. Theoretical administration volume (mL) = ((Dose(mg⋅kg^−1))/(Concentration of test solution (mg⋅((mL))^−1))) × Animal body weight (kg) [formula]
Plasma sample collection: At each designated time point, about 100 µL of blood was collected from the orbit, and the collected whole blood was placed in an EDTA-K2 anticoagulation tube, inverted several times to mix thoroughly, stored on wet ice, and centrifuged (at 1500 g to 1600 g) for 10 min within 30 min to separate the plasma. The resulting plasma sample was stored at -40 °C to -20 °C for biological sample analysis.
The specific procedures for liver tissue collection were as follows: Liver tissues were collected immediately after whole blood collection. The liver tissues were collected, washed with ice-cold normal saline, dehydrated, weighed, and homogenized in 20% methanol-water at a ratio of 1:5 (w/v). The collection time of tissues and the weight of homogenized tissues were required to be recorded in detail in corresponding tables.
The plasma and various tissue homogenates were stored in a refrigerator at -40 °C to -20 °C for sample analysis. After the experiment was completed, the mice were euthanized by carbon dioxide asphyxiation or cervical dislocation. After the analysis was completed, the samples were returned to the biological sample room, and transferred to an environment at -40 °C to -20 °C for storage according to SOP-SM-001.
The corresponding pharmacokinetic parameters of plasma and liver tissues were calculated using a non-compartmental model in Phoenix WinNonlin 8.0 or later versions, and the area under curve AUC0-t (AUC0-t, the area under the concentration-time curve at 24 h post-dose) was calculated. The liver/plasma drug distribution ratio (RL/P) was then calculated.

[8] = type: in vivo, C57BL/6J wild-type female mice
Protocol: as §1, §2, §3

[9] = system: IFN-α, IP-10, IL-6, and TNF-α; assay: Liver safety: cytokine ELISA in liver tissue; type: in vivo, C57BL/6J wild-type female mice; conditions: 1 h, 2 h, 4 h
Protocol: as §1, §2, §3

[10] = system: hepatitis B virus (HBV); assay: Anti-hepatitis B virus activity in HBV-infected primary human hepatocytes; type: cell-based, HBV type B; conditions: HBV-infected PHHs, agonist-treated PBMC supernatant (donor 1) or reference compound
Protocol: The culture supernatant from one donor (donor 1) was selected to stimulate HBV-infected primary hepatocytes (PHHs), and interferon α and nucleoside analog entecavir (ETV) were selected as positive controls. The experimental procedures were as follows (FIG. 14a), and the detailed procedures were as follows: On day -1, cryopreserved PHHs were thawed and adjusted to a density of 6 × 10^5 cells/mL, and the PHHs were seeded into a 48-well plate at 0.22 mL/well.
On day 0, the PHHs were infected with HBV type B at 600 GE/cells.
On day 1, the culture medium was replaced with a fresh one, and reference compounds ETV and Peg-IFN-α2a (Pegasys-Roche) were added to the cells to treat the cells. The reference compounds ETV and Peg-IFN-α2a for the PHHs were each prepared at one concentration, with three replicate wells.
The PBMC supernatants were each prepared at 4 test concentrations, diluted at a ratio of 1:4, and then added to the cells. Three replicate wells were made for each test condition. The culture medium was replaced with a fresh culture medium containing the PBMC supernatants and the reference compounds on days 5, 7, 9, and 11. On day 13, the cell supernatants were collected and the cell viability was detected using CCK-8.
The content of HBV DNA in the supernatants was determined by qPCR according to the kit instructions. HBsAg and HBeAg levels in the supernatants were determined by ELISA.

[11] = system: Peripheral blood mononuclear cells (hPBMCs); assay: Cytokine secretion after stimulation of PBMCs; conditions: hPBMCs from 3 donors, 24 h of stimulation
[12] = system: advanced hepatocellular carcinoma (aHCC); conditions: first-line aHCC; nivolumab 240 mg intravenous drip once every 2 weeks; sorafenib 400 mg oral twice daily; cited from earlier work
[13] = system: advanced unresectable HCC; conditions: cited from earlier work
[14] = C57BL/6 mice, single intragastric administration
[15] = ICR, mouse, liver, oral, 10 mg/kg
[16] = ICR, mouse, liver/plasma, oral, 10 mg/kg
[17] = ICR, mouse, plasma, oral, 10 mg/kg

Compound: COCCNc1nc(N)nc2ccc(Cc3ccc(CN(C)C)cc3)nc12 [Compound I]
mRNA expression level of interferon-related genes [1]: significantly induced an increase | maximum body weight loss [2]: 8.0% | IC50 [3]: 17.2 µM | half-life at 1 µM [4]: 1.7 h | microsomal CLint at 1 µM [4]: 13.7 µL/min/mg | Gross necropsy ([5]; 10 mg/kg, group 1, male animal No. 46): enlarged spleen | Cage-side observation ([5]; 10 mg/kg, group 1, male animal No. 46, day 2): mild hunched posture | Gross necropsy ([5]; 40 mg/kg, group 4, female animal No. 2): enlarged spleen | rectal temperature ([5]; 2 h after treatment, significant difference vs vehicle group, returned to normal 4 h, 8 h and 24 h): decreased | Adverse reactions at maximum tolerated dose/probability [5, 14]: No | Weight loss at maximum tolerated dose: whether recovered [5, 14]: Yes | Weight loss rate at maximum tolerated dose [5, 14]: 12.5% | With or without mouse death [5, 14]: No | spleen weight ([5]; female animals, 30 mg/kg, compared with vehicle group): significantly increased | body weight ([5]; male and female animals, 10-40 mg/kg single administration, began to recover from day 3 to day 7): decreased after the single administration | MTD at 168 h ([5]; mouse, in vivo, po): 40 mg/kg | mouse death ([6]; QW × 3): One mouse in the compound I group died from ascites on day 20 | TGI ([6]; QW × 3, BLI 21 days post-dose, P < 0.0001): 87.0% | Mean drug concentration (liver) ([7]; 0.25h): 3416 ng/g | Mean drug concentration (plasma) ([7]; 0.25h): 0.0454 µg/mL | Mean drug concentration (liver) ([7]; 1 h): 2340 ng/g | Mean drug concentration (plasma) ([7]; 1 h): 0.0259 µg/mL | Mean drug concentration (liver) ([7]; 4h): 263 ng/g | Mean drug concentration (plasma) ([7]; 4h): 0.0107 µg/mL | Mean drug concentration (liver) ([7]; 24h): 35.6 ng/g | Mean drug concentration (plasma) ([7]; 24h): 0.00149 µg/mL | AUC(0-t) at 24 h ([7]; mouse, po, 10 mg/kg, AUC0-t (liver)): 9.48 µg·h/mL | AUC(0-t) at 24 h ([7]; mouse, po, 10 mg/kg, AUC0-t (plasma)): 0.206 µg·h/mL | ALB level ([8]; 10 mpk group at 2 h): significantly lower than that of the control group | AST levels ([8]; all administration groups, no statistically significant differences): exceeded the normal reference range | ALP levels ([8]; all dose groups): within the normal reference value range | GGT levels ([8]; all dose groups): within the normal reference value range | ALT elevation by clinical adverse reaction grading ([8]; single administration, Grade 1 AE = ALT exceeding three times the normal value): did not result in ALT elevation to grade 1 AE | ALT ([8]; whole blood, 3/10/20 mpk i.g. single dose, 1 h, 2 h, 4 h): increased in all groups | expression level of IP-10 ([9]; 3 mpk i.g. single dose): increased first, then decreased, and then increased from 1 h to 4 h | expression levels of IL-6, TNF-α, and IFN-α ([9]; 3 mpk i.g. single dose): decreased from 1 h to 4 h | expression level of IP-10 ([9]; 10 mpk i.g. single dose): peaked at 2 h and decreased at 4 h | expression levels of IL-6, TNF-α, and IFN-α ([9]; 10 mpk i.g. single dose): increased from 1 h to 4 h | expression levels of IL-6, TNF-α, IFN-α, and IP-10 ([9]; 20 mpk i.g. single dose): peaked at 2 h, and decreased at 4 h

Compound: C=C1[C@H](CO)[C@@H](O)C[C@@H]1n1cnc2c(=O)[nH]c(N)nc21 [ETV, entecavir, reference compound]
levels of surface antigens HBeAg and HBsAg ([10]; supernatant ELISA day 13): did not reduce | level of HBV DNA ([10]; supernatant qPCR day 13): significantly inhibited

Mean drug concentration (liver) ([7]; 24h): BLOQ | Mean drug concentration (plasma) ([7]; 24h): BLOQ | concentration at 0.25 h [7, 15]: 907 ng/g | concentration at 1 h [7, 15]: 224 ng/g | concentration at 4 h [7, 15]: 207 ng/g | AUC(0-t) ([7]; ICR, mouse, liver, po, 10 mg/kg): 1.18 µg·h/mL | Kp [7, 16]: 3.5 | Kp at 0.25 h [7, 16]: 2.49 | Kp at 1 h [7, 16]: 3.16 | Kp at 4 h [7, 16]: 15 | Kp ([7]; ICR, mouse, liver/plasma, po, 10 mg/kg): 3.5 | concentration at 0.25 h [7, 17]: 0.364 µg/mL | concentration at 1 h [7, 17]: 0.0709 µg/mL | concentration at 4 h [7, 17]: 0.0138 µg/mL | AUC(0-t) ([7]; ICR, mouse, plasma, po, 10 mg/kg): 0.336 µg·h/mL
Compound: CCCC[C@](C)(CO)Nc1nc(N)nc2cc(F)cnc12 [GS-9688, reference compound]
IFN-α stimulating activity [11]: essentially failed to activate IFN-α

Compound: CNC(=O)c1cc(Oc2ccc(NC(=O)Nc3ccc(Cl)c(C(F)(F)F)c3)cc2)ccn1 [sorafenib]
ORR [12]: 7% | mOS [12]: 14.7 months | median survival ([13]; patients with advanced unresectable HCC (N = 602), placebo 7.9 months): 10.7 months | progression-free survival ([13]; placebo 84 days): 167 days
